According to patent publication US20240207446A1, “M6A-COUPLED EFFECTOR PROTEIN EXPRESSION SYSTEM AND METHODS OF MAKING AND USING SAME” (Duke University, priority 2022, published 2024):
Entries after “also recorded” stand apart in the source; their conditions may differ.

Tests used:
[1] = tested on: m^6A sensor sequence and endogenous ACTB A1222; test: RT-qPCR-based m^6A quantification in HEK293T cells; assay type: cell-based, human; conditions: METTL3 degron cells, auxin (FIG. 3F)
Method: m^6A detection using RT-qPCR. RNA was extracted and treated with DNase I as described above, and a relative quantification of m^6A by RT-qPCR was adapted from^28. 4 reverse transcription reactions were set up using 150 ng of RNA for each: 2 reactions using BstI polymerase (NEB), and 2 reactions using Superscript reverse transcriptase enzyme (Fisher Scientific). For each reverse transcriptase, one reaction included a primer adjacent (+) to the site being tested (reverse compliment reverse oligo immediately downstream of the site), and the other reaction included a primer that is non-adjacent (−) to the site. The BstI reaction consisted of 10 U BstI polymerase, […], 500 nM oligos (adjacent (+) or non-adjacent (−)), in 1× ThermoPol Buffer. Reactions were incubated in a thermal cycler with the following cycling settings: 3 minutes at 25° C., 30 minutes at 50° C., and 3 minutes at 85° C. Superscript III (SSIII) reactions consisted of 200 U Superscript III, […], 25 mM MgCl2+, 10 mM dNTPs, 500 nM oligos (adjacent or non-adjacent), 2 μL 10× FS Buffer, and water up to 20 μL. […] Threshold cycle values were obtained and relative m^6A was calculated using the formula: 2−(CT Bst(−)−Ct SSIII(−)/Ct Bst(+)−Ct SSIII(+)). […] Error bars represent standard deviation, and statistical significance was calculated using a two-way t-test assuming unequal variance.

[2] = tested on: METTL3 (m^6A methylation of the GEMS reporter mRNA), HEK293T cells; test: Western blot and densitometry (EGFP, EGFP-DHFR) in HEK293T cells expressing GEMS; assay type: cell-based, human
Method: Western blotting. Cells were dissociated in culture plates using TrypLE (Gibco) and collected by centrifugation (6,000 rpm, 10 minutes, 4° C.). Cell pellets were resuspended in 150 μL chilled standard RIPA buffer (1% Triton X-100, 0.1% Sodium Deoxycholate, 0.1% SDS) prepared with the addition of Complete Mini protease inhibitor (Sigma Aldrich) immediately before use. Cells were resuspended and incubated on ice in RIPA buffer for 30 minutes. Cell lysates were cleared by centrifugation (13,000 rpm, 10 minutes, 4° C.) and mixed in a 1:1 ratio with NuPage LDS sample buffer (Invitrogen) with 5% Beta-Mercaptoethanol (Sigma). Samples were separated by gel electrophoresis on NuPage 4-12% Bis-Tris SDS-PAGE gels (Invitrogen), then transferred onto PVDF membranes (Amersham) using semi-dry transfer (Trans-Blot Turbo, Biorad). Membranes were blocked with 4% milk powder in 0.1% PBST and incubated with the appropriate primary antibody overnight at 4° C. Membranes were then washed with 0.1% PBST and incubated for 1 hour at room temperature in secondary antibody. Blots were washed and incubated in chemiluminescent ECL reagent solution (Amersham) then imaged in a ChemiDoc MP imaging system (BioRad) under chemiluminescent and colorimetric light. In western blot images, cyclophilin A is shown as a loading control and all western blots are representative of a minimum of 3 independent biological replicates. The following antibodies were used in this study: GFP tag Polyclonal antibody (Proteintech, 50430-2-AP). Anti-HA rabbit monoclonal antibody (Cell Signaling, 3724). Anti-Cyclophilin A antibody (Cell Signaling, 2175S). Anti-DsRed-Express2 Monoclonal Antibody (Fisher Scientific, CF180014). Anti-METTL3 antibody (abcam, ab195352). Anti-SOCS2 antibody (abcam, ab109245). Anti-p53 (7F5) Rabbit monoclonal antibody (Cell Signaling, 2527S). Recombinant Anti-JAK2 Antibody (abcam, ab108596). Recombinant Anti-STAT5 (phosphorylated Y694) (abcam, ab32364). Anti-STAT5 antibody (Cell Signaling, 25656S). Secondary antibodies used in this study: Goat Anti-Rabbit IgG HRP (Abcam, ab6721), Goat anti-mouse IgG HRP (Fisher Scientific, 62-6520).
For densitometry analysis, western blot images were quantified using ImageJ software 58. EGFP band intensity was normalized to either EGFP-DHFR or (EGFP+EGFP-DHFR) as indicated in each experiment. Similar densitometry analysis was used to measure total protein production (EGFP+EGFP-DHFR), normalized to the Cyclophilin A loading control. At least two replicates were used for each western blot quantification analysis. Bars are plotted as mean intensity ratio and error bars represent standard deviation.

m^6A sensor sequence = test: RT-PCR/Sanger sequencing of C-to-U editing of the m^6A sensor sequence in HEK293T cells; assay type: cell-based, human
Method: (§1) Sanger sequencing and RT-qPCR. Cells were dissociated in culture using TrypLE (Gibco) treatment for 2 minutes and collected by centrifugation (6,000 rpm, 10 minutes, 4° C.). RNA was extracted using the RNA easy Plus Mini kit (Qiagen) according to the manufacturer's protocol. Extracted RNA was purified for genomic and plasmid DNA contamination by incubation with 1 μL DNase I at 37° C. for 30 minutes, and purified RNA was precipitated in 2.5 volumes of isopropanol overnight. RNA quantification was performed using the Qubit 4.0 fluorometer following the Qubit RNA broad range assay kit (Invitrogen). 500 ng of RNA was used for reverse transcription with the iScript reverse transcription supermix (Biorad) following the manufacturer's protocol. PCR was then used to […] amplify the region of interest in the m^6A sensor mRNA sequence (see Table 2). PCR products were column purified before Sanger sequencing using QiaQuick spin columns (Qiagen) and 10 μL reactions were submitted for standard amplicon sequencing (Azenta Life Sciences). C-to-U editing percentage was calculated using the EditR web server 59. To measure gene expression using gene-specific oligos, qPCR was performed using iTaq universal SYBR green Supermix (Biorad). 20 μL reactions were set up with 1 μL of cDNA for each sample, in 3 technical replicates. qPCR was performed on a Biorad CFX Duet real-time PCR instrument, and results were analyzed by normalizing threshold cycle of each target gene to 18S rRNA according to established methods^60. At least 2 biological replicates were used for each sample, and results are plotted as mean relative fold expression comparing treatment to the control group as indicated. Error bars represent standard deviation, and statistical significance was calculated using a two-way t-test assuming unequal variance.

[3] = tested on: m^6A in cellular mRNA, HEK293T cells; test: Mass spectrometry of m^6A in purified mRNA; assay type: cell-based, human
Method: Mass spectrometry analysis. Total RNA was extracted as described above, and mRNA was purified using two rounds of oligo(dT) purification with Dynabeads oligo-(dT) mRNA purification kit (Invitrogen), followed by 2 rounds of rRNA depletion using NEBNext rRNA Depletion Kit (V2.0, NEB), and an additional two rounds of oligo(dT) purification with Dynabeads oligo-(dT) mRNA purification kit (Invitrogen). All mRNA purification steps were performed following the manufacturer's instructions. Purified mRNA quality was checked using a Bioanalyzer high sensitivity RNA analysis 6000 pico kit (Agilent). For mass spectrometry analysis, 100-200 ng of purified mRNA was incubated with 2 U of Nuclease P1 (Sigma) with 2.5 mM ZnCl and 25 mM NaCl at 37° C. for 2 hours. mRNA samples were treated with 5 U of antarctic phosphatase (NEB) for 2 h at 37° C. Samples were then processed using the Xevo TQ-S mass spectrometry system. All nucleosides were quantified by retention time and ion mass transitions of 268.2 to 133.2 (A) and 282.2 to 150.1 (m^6A). Data were plotted as a percentage of m^6A relative to A. At least 2 biological replicates were performed for each sample.

[4] = tested on: METTL3 (m^6A methylation of the GEMS reporter mRNA), HEK293T cells; test: GEMS EGFP fluorescence microscopy / quantitative microscopy in HEK293T cells; assay type: cell-based, human
Method: Plasmid Transfection. Transfections were performed using Fugene HD (Promega) according to the manufacturer's instructions. For METTL3 inhibition experiments, cells were treated with 10 μM or 30 μM of STM2457 (MedChemExpress) for 16 hours prior to transfection. Cells were treated with 0.1% DMSO (VWR Life Science) as a control. For experiments using METTL3 degron cells, 0.1 mg/mL of auxin or equivalent volume of H2O (control) was added to the cells for 24 hours prior to plasmid transfection.
Microscopy. All images were obtained using a Leica DMi8 inverted fluorescence microscope. Images were processed using the Leica LAS X software. 4-5 fields of view were obtained per sample, and representative images were selected for each experiment.
Quantitative Microscopy. HEK293T cells were plated in 10 cm cell culture-treated dishes at a density of 2.2×10^6 cells per plate and allowed to grow overnight. Cells were then treated with 30 μM of STM2457 or DMSO control for 16 hours. Cells were then transfected with the GEMS-PEST-DsRed plasmid and allowed to grow for an additional 16 hours. Prior to imaging, media was replaced with 1×PBS with 1 μg/mL Hoechst nuclear fluorescent stain (ThermoFisher Scientific) for 30 minutes. Cells were imaged using a Leica DMi8 fluorescence microscope. Images were analyzed by ImageJ image analysis software. First, fluorescence channels were separated and RGB fluorescence channels were converted to grayscale (16-bit). Binary image thresholds were set in relation to DsRed fluorescence signal and background noise was subtracted. Individual cells were selected, and pixel intensities were generated of each individual cell within the field of view. Similar binary image thresholding, cell selection, and intensity datasets were generated for the EGFP image channel. Data were analyzed by dividing EGFP signal intensity for each cell by average DsRed signal intensity. Data were plotted in JMP software (IMP 17.0, SAS Institute Inc.) by normalized EGFP signal intensity for each treatment. Boxplots represent interquartile range of the data and whiskers represent minimum and maximum data points excluding outliers. Statistical significance was calculated using a two-way t-test assuming unequal variance.

m^6A reporter mRNA = test: RT-qPCR of m^6A reporter mRNA abundance in HEK293T cells; assay type: cell-based, human
Method: as §1

MOLM-13 cells = conditions: AML cell line with high levels of METTL3; cited from earlier work
Huh-7 cells = test: RT-qPCR gene expression in Huh-7 cells; assay type: cell-based, human; conditions: increasing amounts of STM2457 (FIG. 9C)
Method: as §1, with “PCR products were column purified before Sanger sequencing using QiaQuick spin columns (Qiagen) and 10 μL reactions were submitted for standard amplicon sequencing (Azenta Life Sciences).” left out, “To measure gene expression using gene-specific oligos, qPCR was performed using iTaq universal SYBR green Supermix (Biorad).” left out, “At least 2 biological replicates were used for each sample, and results are plotted as mean relative fold expression comparing treatment to the control group as indicated.” left out

Molecule: O=C(O)Cc1c[nH]c2ccccc12 [auxin]
- m^6A sensor sequence methylation, RT-qPCR [1]: decreased m^6A
- total reporter mRNA protein production (EGFP+EGFP-DHFR) relative to cyclophilin A ([2]; METTL3 degron cells expressing GEMS (FIG. 3H)): no significant difference
- METTL3 and EGFP protein, western blot ([2]; METTL3 degron cells, auxin (FIG. 3C)): loss of METTL3 and EGFP
- EGFP/EGFP-DHFR ratio ([2]; METTL3 degron cells, auxin (FIG. 3D)): decrease in EGFP/EGFP-DHFR
- C-to-U editing of the m^6A sensor sequence (m^6A sensor sequence; METTL3 degron cells, auxin (FIG. 3E)): Editing is reduced
- m^6A in purified mRNA, mass spectrometry ([3]; METTL3 degron cells, auxin-treated (FIG. 3A)): decrease in m^6A
- EGFP fluorescence from the GEMS system ([4]; HEK293T METTL3 degron cells, auxin (FIG. 3B)): reduced EGFP fluorescence
- m^6A reporter mRNA expression, RT-qPCR (m^6A reporter mRNA; METTL3 degron cells with and without auxin (FIG. 3G)): no significant difference

Molecule: STM2457
- proliferation and colony formation (MOLM-13 cells): reduced proliferation and colony formation
- EGFP/EGFP-DHFR ratio, densitometry ([2]; HEK293T, 30 μM STM2457, 24 h (FIG. 5D)): reduced EGFP/EGFP-DHFR ratio
- production of EGFP protein, western blot ([2]; HEK293T, 10 or 30 μM STM2457 (FIG. 5F)): decreased production of EGFP protein with increasing doses
- EGFP protein, western blot ([2]; HEK293T, STM2457-treated (FIG. 5C)): decreased EGFP protein
- production of EGFP protein, western blot, GEMS with EGFP-PEST ([2]; HEK293T, increasing doses of STM2457 (FIG. 5M)): decreased production of EGFP protein with increasing doses
- C-to-U editing of the m^6A sensor sequence (m^6A sensor sequence; HEK293T, 30 μM STM2457, 24 h (FIG. 5J)): reduced C-to-U editing
- editing of the m^6A sensor sequence (m^6A sensor sequence; HEK293T, 10 or 30 μM STM2457 (FIG. 5G)): decreased editing with increasing amounts
- editing of the m^6A sensor sequence, GEMS with EGFP-PEST (m^6A sensor sequence; HEK293T, increasing amounts of STM2457 (FIG. 5N)): decreased editing with increasing amounts
- m^6A in purified mRNA, mass spectrometry ([3]; HEK293T, STM2457 treatment (FIG. 5H)): depletion of m^6A
- EGFP fluorescence from the GEMS system ([4]; HEK293T, 30 μM STM2457, 24 h (FIG. 5A)): reduced
- EGFP fluorescence intensity, quantitative microscopy ([4]; HEK293T, 30 μM STM2457, EGFP normalized to DsRed (FIG. 5B)): significant reduction
- m^6A-coupled EGFP fluorescence ([4]; HEK293T, 10 or 30 μM STM2457, 24 h, DsRed internal control (FIG. 5E)): increased depletion
- EGFP signal, GEMS with EGFP-PEST ([4]; HEK293T, 10 or 30 μM STM2457, GEMS-EGFP-PEST, compared to GEMS-EGFP (FIG. 5L)): greater depletion at lower doses
- EGFP fluorescence / GEMS activity activated by dCas13-GEMS ([4]; HEK293T, STM2457 for 16 hours, then dCas13-GEMS and gRNAs (FIG. 8F)): abolished; also recorded: decreased
- SOCS2 mRNA expression, RT-qPCR (Huh-7 cells): dose-dependent increase
- abundance of the m^6A reporter mRNA (m^6A reporter mRNA; HEK293T, 30 μM STM2457 or DMSO (FIG. 5I)): no significant difference

Molecule: C[C@@H]1C[C@@H]([C@H](O)CC2CC(=O)NC(=O)C2)C(=O)[C@@H](C)C1 [cycloheximide]
- m^6A reporter mRNA levels (m^6A reporter mRNA; HEK293T with GEMS, cycloheximide 0-120 minutes (FIG. 3I)): no effect
